Experimental findings from PubChem BioAssay AID1259407 (Chemical Carcinogenesis Research Information System (CCRIS), 2018) are described below.

Activity calls are given as the source filed them. How the calls were made is not given here.

For this series, the system named is CCRIS mutagenicity, Ames/micronucleus/aberration tests. The experiment in a line: CCRIS mutagenicity studies.
Where [1] appears, read: Test System: AMES SALMONELLA TYPHIMURIUM, Strain/Indicator: TA98, Metabolic Activation: NONE, Method: PREINCUBATION
Setting [2] is: Test System: AMES SALMONELLA TYPHIMURIUM, Strain/Indicator: TA100, Metabolic Activation: NONE, Method: PREINCUBATION
The mark [3] stands for this setting: Test System: AMES SALMONELLA TYPHIMURIUM, Strain/Indicator: TA1535, Metabolic Activation: NONE, Method: PREINCUBATION
Where [4] appears, read: Test System: AMES SALMONELLA TYPHIMURIUM, Strain/Indicator: TA98, Metabolic Activation: NONE, Method: STANDARD PLATE.
The mark [5] stands for this setting: Test System: AMES SALMONELLA TYPHIMURIUM, Strain/Indicator: TA100, Metabolic Activation: NONE, Method: STANDARD PLATE.

For the molecule `CCCCCCCOc1ccccc1NC(=O)OCCN1CCCCC1`, the mutagenic call runs as follows: (Test System: AMES SALMONELLA TYPHIMURIUM, Strain/Indicator: TA98, Metabolic Activation: MOUSE, LIVER, S-9, AROCLOR 1254, Method: PREINCUBATION) “inactive; negative”; under setting [1], “inactive; negative”; (Test System: AMES SALMONELLA TYPHIMURIUM, Strain/Indicator: TA100, Metabolic Activation: MOUSE, LIVER, S-9, AROCLOR 1254, Method: PREINCUBATION) “inactive; negative”; under setting [2], “inactive; negative”; (Test System: AMES SALMONELLA TYPHIMURIUM, Strain/Indicator: TA1535, Metabolic Activation: MOUSE, LIVER, S-9, AROCLOR 1254, Method: PREINCUBATION) “inactive; negative”; under setting [3], “inactive; negative”. The mutagenic call is “inactive; negative” (Test System: AMES SALMONELLA TYPHIMURIUM, Strain/Indicator: TA1538, Metabolic Activation: MOUSE, LIVER, S-9, AROCLOR 1254, Method: PREINCUBATION); “inactive; negative” (Test System: AMES SALMONELLA TYPHIMURIUM, Strain/Indicator: TA1538, Metabolic Activation: NONE, Method: PREINCUBATION); “inactive; negative” (Test System: AMES SALMONELLA TYPHIMURIUM, Strain/Indicator: TA1978, Metabolic Activation: MOUSE, LIVER, S-9, AROCLOR 1254, Method: PREINCUBATION); “inactive; negative” (Test System: AMES SALMONELLA TYPHIMURIUM, Strain/Indicator: TA1978, Metabolic Activation: NONE, Method: PREINCUBATION); “inactive; negative” (Test System: E. COLI, Strain/Indicator: CM611 UVRA/LEXA, Metabolic Activation: MOUSE, LIVER, S-9, AROCLOR 1254, Method: PREINCUBATION); “inactive; negative” (Test System: E. COLI, Strain/Indicator: CM611 UVRA/LEXA, Metabolic Activation: NONE, Method: PREINCUBATION). Also, the mutagenic call by setting is: (Test System: E. COLI, Strain/Indicator: WP2, Metabolic Activation: MOUSE, LIVER, S-9, AROCLOR 1254, Method: PREINCUBATION) “inactive; negative”; (Test System: E. COLI, Strain/Indicator: WP2, Metabolic Activation: NONE, Method: PREINCUBATION) “inactive; negative”; (Test System: E. COLI, Strain/Indicator: WP2 UVRA, Metabolic Activation: MOUSE, LIVER, S-9, AROCLOR 1254, Method: PREINCUBATION) “inactive; negative”; (Test System: E. COLI, Strain/Indicator: WP2 UVRA, Metabolic Activation: NONE, Method: PREINCUBATION) “inactive; negative”; (Test System: E. COLI, Strain/Indicator: WP67 UVRA/POLA, Metabolic Activation: MOUSE, LIVER, S-9, AROCLOR 1254, Method: PREINCUBATION) “inactive; negative”; (Test System: E. COLI, Strain/Indicator: WP67 UVRA/POLA, Metabolic Activation: NONE, Method: PREINCUBATION) “inactive; negative”.

Take `Clc1cnc(Oc2ccc(Oc3ncc(Cl)cc3Cl)cc2)c(Cl)c1`: the mutagenic call is “inactive; negative” under setting [4]; “inactive; negative” (Test System: AMES SALMONELLA TYPHIMURIUM, Strain/Indicator: TA98, Metabolic Activation: RAT, LIVER, S-9, PHENOBARBITAL AND 5,6-BENZOFLAVONE, Method: STANDARD PLATE); “inactive; negative” (Test System: AMES SALMONELLA TYPHIMURIUM, Strain/Indicator: TA98, Method: STANDARD PLATE); “inactive; negative” under setting [5]; “inactive; negative” (Test System: AMES SALMONELLA TYPHIMURIUM, Strain/Indicator: TA100, Metabolic Activation: RAT, LIVER, S-9, PHENOBARBITAL AND 5,6-BENZOFLAVONE, Method: STANDARD PLATE); “inactive; negative” (Test System: AMES SALMONELLA TYPHIMURIUM, Strain/Indicator: TA100, Method: STANDARD PLATE). Also, the mutagenic call runs as follows: (Test System: AMES SALMONELLA TYPHIMURIUM, Strain/Indicator: TA102, Metabolic Activation: NONE, Method: STANDARD PLATE) “inactive; negative”; (Test System: AMES SALMONELLA TYPHIMURIUM, Strain/Indicator: TA102, Metabolic Activation: RAT, LIVER, S-9, PHENOBARBITAL AND 5,6-BENZOFLAVONE, Method: STANDARD PLATE) “inactive; negative”; (Test System: AMES SALMONELLA TYPHIMURIUM, Strain/Indicator: TA102, Method: STANDARD PLATE) “inactive; negative”.

With `O=S1(=O)c2cccc3ccc4c5ccccc5cc1c4c23`, the mutagenic call by setting is: under setting [4], “active; positive”; (Test System: AMES SALMONELLA TYPHIMURIUM, Strain/Indicator: TA98, Metabolic Activation: RAT, LIVER, S-9, AROCLOR 1254 (10%), Method: STANDARD PLATE) “active; positive”; under setting [5], “active; positive”; (Test System: AMES SALMONELLA TYPHIMURIUM, Strain/Indicator: TA100, Metabolic Activation: RAT, LIVER, S-9, AROCLOR 1254 (10%), Method: STANDARD PLATE) “active; positive”.

As to `Cc1ccc2cc3c(ccc4ccccc43)c3c2c1CC3OS(=O)(=O)O` (stereo not drawn), the mutagenic call was “active; positive” under setting [1] and “active; positive” under setting [2].

For `CCC[CH2][Sn]([Cl])([Cl])[Cl]`, the mutagenic call (Test System: AMES SALMONELLA TYPHIMURIUM, Strain/Indicator: TA98, Metabolic Activation: NONE, Method: SUSPENSION/PLATE) was “inactive; negative” and the mutagenic call (Test System: AMES SALMONELLA TYPHIMURIUM, Strain/Indicator: TA100, Metabolic Activation: NONE, Method: SUSPENSION/PLATE) is “inactive; negative”.

`CC(C)(C)c1ccc(OCC2CO2)cc1` (stereo not drawn): the mutagenic call reads like this: (Test System: AMES SALMONELLA TYPHIMURIUM, Strain/Indicator: TA98, Metabolic Activation: HAMSTER, LIVER, S-9, AROCLOR 1254 (30%), Method: PREINCUBATION) “inactive; negative”; under setting [1], “inactive; negative”; (Test System: AMES SALMONELLA TYPHIMURIUM, Strain/Indicator: TA98, Metabolic Activation: RAT, LIVER, S-9, AROCLOR 1254 (30%), Method: PREINCUBATION) “inactive; negative”; (Test System: AMES SALMONELLA TYPHIMURIUM, Strain/Indicator: TA100, Metabolic Activation: HAMSTER, LIVER, S-9, AROCLOR 1254 (30%), Method: PREINCUBATION) “inactive; negative”; under setting [2], “active; positive”; (Test System: AMES SALMONELLA TYPHIMURIUM, Strain/Indicator: TA100, Metabolic Activation: RAT, LIVER, S-9, AROCLOR 1254 (30%), Method: PREINCUBATION) “inactive; negative”. In addition, the mutagenic call (Test System: AMES SALMONELLA TYPHIMURIUM, Strain/Indicator: TA1535, Metabolic Activation: HAMSTER, LIVER, S-9, AROCLOR 1254 (30%), Method: PREINCUBATION) is “inactive; negative”; the mutagenic call under setting [3] is “inactive; negative”; the mutagenic call (Test System: AMES SALMONELLA TYPHIMURIUM, Strain/Indicator: TA1535, Metabolic Activation: RAT, LIVER, S-9, AROCLOR 1254 (30%), Method: PREINCUBATION) was “inactive; negative”; the mutagenic call (Test System: AMES SALMONELLA TYPHIMURIUM, Strain/Indicator: TA1537, Metabolic Activation: HAMSTER, LIVER, S-9, AROCLOR 1254 (30%), Method: PREINCUBATION) was “inactive; negative”; the mutagenic call (Test System: AMES SALMONELLA TYPHIMURIUM, Strain/Indicator: TA1537, Metabolic Activation: NONE, Method: PREINCUBATION) is “inactive; negative”; the mutagenic call (Test System: AMES SALMONELLA TYPHIMURIUM, Strain/Indicator: TA1537, Metabolic Activation: RAT, LIVER, S-9, AROCLOR 1254 (30%), Method: PREINCUBATION) is “inactive; negative”.

`COc1cccc2c1C1(C)OOC1(C)O2` (stereo not drawn): under setting [2], the mutagenic call was “active; positive”.
